According to PubChem BioAssay (NCI):
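Cells were grown in 96-well plates and exposed to each compound for 48 hours at five concentrations; endpoints were interpolated linearly between bracketing concentrations, or set to the highest concentration if not reached. Abbreviation: GI50, concentration required for 50% inhibition of growth. At the TGI there is no net growth.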

What was measured:
Assay in all cases: NCI anticancer screen, dose series, 48 h
[1] = system: HL-60(TB) leukemia
[2] = system: MCF7 breast
[3] = system: SNB-19 CNS
[4] = system: 786-0 renal
[5] = system: SK-OV-3 ovarian
[6] = system: SF-295 CNS
[7] = system: SK-MEL-5 melanoma
[8] = system: TK-10 renal
[9] = system: HOP-92 NSCLC
[10] = system: SK-MEL-2 melanoma
[11] = system: MOLT-4 leukemia
[12] = system: EKVX NSCLC
[13] = system: SR leukemia
[14] = system: NCI-H23 lung
[15] = system: UACC-62 melanoma
[16] = system: CCRF-CEM leukemia
[17] = system: OVCAR-5 ovarian
[18] = system: ACHN renal
[19] = system: SF-268 CNS
[20] = system: HT29 colon
[21] = system: HCT-15 colon
[22] = system: T-47D breast
[23] = system: OVCAR-8 ovarian
[24] = system: NCI-H460 lung
[25] = system: SW-620 colon
[26] = system: HCC-2998 colon
[27] = system: M14 melanoma
[28] = system: KM12 colon
[29] = system: PC-3 prostate
[30] = system: NCI-H522 lung
[31] = system: U251 CNS
[32] = system: SF-539 CNS
[33] = system: NCI/ADR-RES ovarian
[34] = system: BT-549 breast
[35] = system: HS 578T breast
[36] = system: SK-MEL-28 melanoma
[37] = system: MDA-MB-231 breast
[38] = system: NCI-H226 lung
[39] = system: UO-31 renal
[40] = system: MDA-MB-435
[41] = system: OVCAR-3 ovarian
[42] = system: HCT-116 colon
[43] = system: DU-145 prostate
[44] = system: HOP-62 NSCLC
[45] = system: SN12C renal
[46] = system: CAKI-1 renal
[47] = system: COLO 205 colon
[48] = system: RPMI-8226 leukemia
[49] = system: OVCAR-4 ovarian
[50] = system: IGROV1 ovarian
[51] = system: RXF 393 renal
[52] = system: LOX IMVI melanoma
[53] = system: A498 renal
[54] = system: A549 NSCLC

`COc1ccc(C2NC(=O)c3cc4c(cc3N2)OCO4)cc1` (configuration not stated) was tested. Which GI50 [1] did it give?
The GI50 was 345 nM.

And the TGI [1]?
Its TGI is 1850 nM.

And the GI50 [2]?
The GI50 was 339 nM.

And the TGI [2]?
Its TGI is > 100000 nM.

What about the GI50 [3] of the same molecule?
The GI50 was 966 nM.

And the TGI [3]?
Its TGI is > 100000 nM.

And the GI50 [4]?
Its GI50 is 2380 nM.

And the TGI [4]?
The TGI was > 100000 nM.

And the GI50 [5]?
The GI50 was 499 nM.

What about the TGI [5] of the same molecule?
The TGI was 7360 nM.

And the GI50 [6]?
Its GI50 is 704 nM.

What about the TGI [6] of the same molecule?
Its TGI is > 100000 nM.

And the GI50 [7]?
The GI50 was 297 nM.

And the TGI [7]?
Its TGI is 50500 nM.

What about the GI50 [8] of the same molecule?
The GI50 was 19300 nM.

What about the TGI [8] of the same molecule?
Its TGI is > 100000 nM.

And the GI50 [9]?
Its GI50 is 11400 nM.

And the TGI [9]?
The TGI was > 100000 nM.

What about the GI50 [10] of the same molecule?
The GI50 was 2840 nM.

And the TGI [10]?
The TGI was > 100000 nM.

And the GI50 [11]?
Its GI50 is 2540 nM.

And the TGI [11]?
Its TGI is > 100000 nM.

What about the GI50 [12] of the same molecule?
The GI50 was 2420 nM.

And the TGI [12]?
The TGI was > 100000 nM.

And the GI50 [13]?
The GI50 was 415 nM.

What about the TGI [13] of the same molecule?
Its TGI is > 100000 nM.

What about the GI50 [14] of the same molecule?
The GI50 was 1250 nM.

And the TGI [14]?
Its TGI is > 100000 nM.

What about the GI50 [15] of the same molecule?
The GI50 was 571 nM.

What about the TGI [15] of the same molecule?
The TGI was > 100000 nM.

And the GI50 [16]?
Its GI50 is 868 nM.

What about the TGI [16] of the same molecule?
The TGI was > 100000 nM.

And the GI50 [17]?
Its GI50 is 1510 nM.

And the TGI [17]?
The TGI was > 100000 nM.

And the GI50 [18]?
Its GI50 is 4100 nM.

And the TGI [18]?
Its TGI is > 100000 nM.

And the GI50 [19]?
The GI50 was 2000 nM.

And the TGI [19]?
The TGI was > 100000 nM.

What about the GI50 [20] of the same molecule?
The GI50 was 856 nM.

What about the TGI [20] of the same molecule?
Its TGI is > 100000 nM.

What about the GI50 [21] of the same molecule?
Its GI50 is 504 nM.

And the TGI [21]?
The TGI was > 100000 nM.

And the GI50 [22]?
The GI50 was 683 nM.

What about the TGI [22] of the same molecule?
The TGI was > 100000 nM.

What about the GI50 [23] of the same molecule?
The GI50 was 1630 nM.

What about the TGI [23] of the same molecule?
Its TGI is > 100000 nM.

What about the GI50 [24] of the same molecule?
The GI50 was 341 nM.

What about the TGI [24] of the same molecule?
The TGI was > 100000 nM.

And the GI50 [25]?
The GI50 was 432 nM.

What about the TGI [25] of the same molecule?
Its TGI is > 100000 nM.

What about the GI50 [26] of the same molecule?
Its GI50 is 1070 nM.

What about the TGI [26] of the same molecule?
Its TGI is 7140 nM.

What about the GI50 [27] of the same molecule?
The GI50 was 927 nM.

What about the TGI [27] of the same molecule?
Its TGI is > 100000 nM.

And the GI50 [28]?
Its GI50 is 557 nM.

What about the TGI [28] of the same molecule?
Its TGI is > 100000 nM.

What about the GI50 [29] of the same molecule?
The GI50 was 2810 nM.

And the TGI [29]?
The TGI was > 100000 nM.

And the GI50 [30]?
The GI50 was 1870 nM.

And the TGI [30]?
The TGI was 6580 nM.

What about the GI50 [31] of the same molecule?
The GI50 was 849 nM.

What about the TGI [31] of the same molecule?
The TGI was > 100000 nM.

What about the GI50 [32] of the same molecule?
Its GI50 is 1010 nM.

And the TGI [32]?
Its TGI is 9900 nM.

What about the GI50 [33] of the same molecule?
Its GI50 is 508 nM.

And the TGI [33]?
The TGI was 3860 nM.

And the GI50 [34]?
The GI50 was 16500 nM.

What about the TGI [34] of the same molecule?
The TGI was > 100000 nM.

And the GI50 [35]?
The GI50 was 1420 nM.

What about the TGI [35] of the same molecule?
The TGI was > 100000 nM.

And the GI50 [36]?
The GI50 was 719 nM.

And the TGI [36]?
Its TGI is > 100000 nM.

And the GI50 [37]?
The GI50 was 3030 nM.

And the TGI [37]?
Its TGI is > 100000 nM.

And the GI50 [38]?
Its GI50 is 389 nM.

What about the TGI [38] of the same molecule?
Its TGI is 6090 nM.

And the GI50 [39]?
The GI50 was 13500 nM.

And the TGI [39]?
Its TGI is > 100000 nM.

And the GI50 [40]?
The GI50 was 215 nM.

And the TGI [40]?
The TGI was 543 nM.

What about the GI50 [41] of the same molecule?
The GI50 was 791 nM.

And the TGI [41]?
Its TGI is 3520 nM.

What about the GI50 [42] of the same molecule?
The GI50 was 511 nM.

What about the TGI [42] of the same molecule?
Its TGI is > 100000 nM.

What about the GI50 [43] of the same molecule?
The GI50 was 807 nM.

And the TGI [43]?
Its TGI is > 100000 nM.

What about the GI50 [44] of the same molecule?
Its GI50 is 1020 nM.

And the TGI [44]?
The TGI was > 100000 nM.

What about the GI50 [45] of the same molecule?
The GI50 was 481 nM.

What about the TGI [45] of the same molecule?
The TGI was > 100000 nM.

And the GI50 [46]?
The GI50 was 466 nM.

What about the TGI [46] of the same molecule?
The TGI was > 100000 nM.

What about the GI50 [47] of the same molecule?
The GI50 was 408 nM.

And the TGI [47]?
Its TGI is 3560 nM.

What about the TGI [48] of the same molecule?
The TGI was > 100000 nM.

And the GI50 [49]?
The GI50 was 5520 nM.

And the TGI [49]?
The TGI was > 100000 nM.

What about the GI50 [50] of the same molecule?
The GI50 was 4920 nM.

What about the TGI [50] of the same molecule?
The TGI was > 100000 nM.

And the GI50 [51]?
The GI50 was 287 nM.

What about the TGI [51] of the same molecule?
Its TGI is 1610 nM.

What about the GI50 [52] of the same molecule?
The GI50 was 821 nM.

What about the TGI [52] of the same molecule?
The TGI was > 100000 nM.

And the GI50 [53]?
Its GI50 is 164 nM.

What about the TGI [53] of the same molecule?
The TGI was 2950 nM.

What about the GI50 [54] of the same molecule?
The GI50 was 678 nM.

What about the TGI [54] of the same molecule?
Its TGI is > 100000 nM.
